Data published in patent US8192962B2, “Processes for detecting toxic substances” (Daikin Industries, Ltd., priority 2001, dated 2012).

Key:
DNA repair protein genes = test: DNA chip mRNA expression in yeast, DNA repair protein genes (Table 3); assay type: cell-based, Saccharomyces cerevisiae S288C; conditions: incubated two hours, concentrations as in the 1st table
Outline: (§1)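 First, S288C yeast grown in YPD at 25° C. are dosed in log phase with one toxicant (growth-inhibiting, not lethal) for 2 h. Next, total RNA is extracted and poly(A) mRNA isolated and reverse-transcribed with Cy3/Cy5-dUTP. Finally, whole-genome chip fluorescence is read relative to unexposed cells.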

[1] = tested on: Detoxification protein genes; test: DNA chip mRNA expression in yeast, detoxification protein genes (Table 8); assay type: cell-based, Saccharomyces cerevisiae S288C
Outline: as §1

## N#Cc1c(Cl)c(Cl)c(Cl)c(C#N)c1Cl [(9), 2,4,5,6-tetrachloro-1,3-benzenedicarbonitrile]
DNA repair protein genes; yeast gene YAL015C
  The level of expressed mRNA in the presence of chemical substance/The level of expressed mRNA in the absence of chemical substance: 4.0
DNA repair protein genes; yeast gene YAR007C
  The level of expressed mRNA in the presence of chemical substance/The level of expressed mRNA in the absence of chemical substance: 4.1
DNA repair protein genes; yeast gene YBL019W
  The level of expressed mRNA in the presence of chemical substance/The level of expressed mRNA in the absence of chemical substance: 2.6
DNA repair protein genes; yeast gene YBR073W
  The level of expressed mRNA in the presence of chemical substance/The level of expressed mRNA in the absence of chemical substance: 2.5
DNA repair protein genes; yeast gene YBR272C
  The level of expressed mRNA in the presence of chemical substance/The level of expressed mRNA in the absence of chemical substance: 1.7
DNA repair protein genes; yeast gene YCR014C
  The level of expressed mRNA in the presence of chemical substance/The level of expressed mRNA in the absence of chemical substance: 2.4
DNA repair protein genes; yeast gene YDL017W
  The level of expressed mRNA in the presence of chemical substance/The level of expressed mRNA in the absence of chemical substance: 0.8
DNA repair protein genes; yeast gene YDL059C
  The level of expressed mRNA in the presence of chemical substance/The level of expressed mRNA in the absence of chemical substance: 10.5
DNA repair protein genes; yeast gene YDL200C
  The level of expressed mRNA in the presence of chemical substance/The level of expressed mRNA in the absence of chemical substance: 2.4
DNA repair protein genes; yeast gene YDR054C
  The level of expressed mRNA in the presence of chemical substance/The level of expressed mRNA in the absence of chemical substance: 2.9
DNA repair protein genes; yeast gene YDR369C
  The level of expressed mRNA in the presence of chemical substance/The level of expressed mRNA in the absence of chemical substance: 2.4
DNA repair protein genes; yeast gene YEL019C
  The level of expressed mRNA in the presence of chemical substance/The level of expressed mRNA in the absence of chemical substance: 0.7
DNA repair protein genes; yeast gene YEL037C
  The level of expressed mRNA in the presence of chemical substance/The level of expressed mRNA in the absence of chemical substance: 2.6
DNA repair protein genes; yeast gene YER162C
  The level of expressed mRNA in the presence of chemical substance/The level of expressed mRNA in the absence of chemical substance: 2.8
DNA repair protein genes; yeast gene YFL014W
  The level of expressed mRNA in the presence of chemical substance/The level of expressed mRNA in the absence of chemical substance: 13.1
DNA repair protein genes; yeast gene YGL058W
  The level of expressed mRNA in the presence of chemical substance/The level of expressed mRNA in the absence of chemical substance: 3.7
DNA repair protein genes; yeast gene YGL091C
  The level of expressed mRNA in the presence of chemical substance/The level of expressed mRNA in the absence of chemical substance: 10.8
DNA repair protein genes; yeast gene YGL127C
  The level of expressed mRNA in the presence of chemical substance/The level of expressed mRNA in the absence of chemical substance: 1.2
DNA repair protein genes; yeast gene YGL163C
  The level of expressed mRNA in the presence of chemical substance/The level of expressed mRNA in the absence of chemical substance: 5.8
DNA repair protein genes; yeast gene YGL249W
  The level of expressed mRNA in the presence of chemical substance/The level of expressed mRNA in the absence of chemical substance: 0.3
DNA repair protein genes; yeast gene YGR180C
  The level of expressed mRNA in the presence of chemical substance/The level of expressed mRNA in the absence of chemical substance: 1.4
DNA repair protein genes; yeast gene YGR231C
  The level of expressed mRNA in the presence of chemical substance/The level of expressed mRNA in the absence of chemical substance: 3.2
DNA repair protein genes; yeast gene YGR258C
  The level of expressed mRNA in the presence of chemical substance/The level of expressed mRNA in the absence of chemical substance: 2.5
DNA repair protein genes; yeast gene YHR164C
  The level of expressed mRNA in the presence of chemical substance/The level of expressed mRNA in the absence of chemical substance: 1.3
DNA repair protein genes; yeast gene YIL036W
  The level of expressed mRNA in the presence of chemical substance/The level of expressed mRNA in the absence of chemical substance: 3.6
DNA repair protein genes; yeast gene YIL072W
  The level of expressed mRNA in the presence of chemical substance/The level of expressed mRNA in the absence of chemical substance: 2.9
DNA repair protein genes; yeast gene YIL143C
  The level of expressed mRNA in the presence of chemical substance/The level of expressed mRNA in the absence of chemical substance: 7.1
DNA repair protein genes; yeast gene YIL153W
  The level of expressed mRNA in the presence of chemical substance/The level of expressed mRNA in the absence of chemical substance: 4.3
DNA repair protein genes; yeast gene YIR002C
  The level of expressed mRNA in the presence of chemical substance/The level of expressed mRNA in the absence of chemical substance: 1.7
DNA repair protein genes; yeast gene YJL026W
  The level of expressed mRNA in the presence of chemical substance/The level of expressed mRNA in the absence of chemical substance: 1.0
DNA repair protein genes; yeast gene YJR046W
  The level of expressed mRNA in the presence of chemical substance/The level of expressed mRNA in the absence of chemical substance: 6.0
DNA repair protein genes; yeast gene YJR052W
  The level of expressed mRNA in the presence of chemical substance/The level of expressed mRNA in the absence of chemical substance: 4.5
DNA repair protein genes; yeast gene YKL145W
  The level of expressed mRNA in the presence of chemical substance/The level of expressed mRNA in the absence of chemical substance: 3.5
DNA repair protein genes; yeast gene YLR103C
  The level of expressed mRNA in the presence of chemical substance/The level of expressed mRNA in the absence of chemical substance: 0.8
DNA repair protein genes; yeast gene YLR233C
  The level of expressed mRNA in the presence of chemical substance/The level of expressed mRNA in the absence of chemical substance: 0.6
DNA repair protein genes; yeast gene YLR288C
  The level of expressed mRNA in the presence of chemical substance/The level of expressed mRNA in the absence of chemical substance: 0.8
DNA repair protein genes; yeast gene YML032C
  The level of expressed mRNA in the presence of chemical substance/The level of expressed mRNA in the absence of chemical substance: 3.0
DNA repair protein genes; yeast gene YML058W
  The level of expressed mRNA in the presence of chemical substance/The level of expressed mRNA in the absence of chemical substance: 1.1
DNA repair protein genes; yeast gene YMR035W
  The level of expressed mRNA in the presence of chemical substance/The level of expressed mRNA in the absence of chemical substance: 1.7
DNA repair protein genes; yeast gene YMR072W
  The level of expressed mRNA in the presence of chemical substance/The level of expressed mRNA in the absence of chemical substance: 3.0
DNA repair protein genes; yeast gene YMR096W
  The level of expressed mRNA in the presence of chemical substance/The level of expressed mRNA in the absence of chemical substance: 3.3
DNA repair protein genes; yeast gene YMR284W
  The level of expressed mRNA in the presence of chemical substance/The level of expressed mRNA in the absence of chemical substance: 1.6
DNA repair protein genes; yeast gene YNL213C
  The level of expressed mRNA in the presence of chemical substance/The level of expressed mRNA in the absence of chemical substance: 3.0
DNA repair protein genes; yeast gene YNL250W
  The level of expressed mRNA in the presence of chemical substance/The level of expressed mRNA in the absence of chemical substance: 4.2
DNA repair protein genes; yeast gene YNL261W
  The level of expressed mRNA in the presence of chemical substance/The level of expressed mRNA in the absence of chemical substance: 2.3
DNA repair protein genes; yeast gene YNL312W
  The level of expressed mRNA in the presence of chemical substance/The level of expressed mRNA in the absence of chemical substance: 3.7
DNA repair protein genes; yeast gene YOL043C
  The level of expressed mRNA in the presence of chemical substance/The level of expressed mRNA in the absence of chemical substance: 1.0
DNA repair protein genes; yeast gene YOR005C
  The level of expressed mRNA in the presence of chemical substance/The level of expressed mRNA in the absence of chemical substance: 2.4
DNA repair protein genes; yeast gene YOR386W
  The level of expressed mRNA in the presence of chemical substance/The level of expressed mRNA in the absence of chemical substance: 4.1
DNA repair protein genes; yeast gene YPL022W
  The level of expressed mRNA in the presence of chemical substance/The level of expressed mRNA in the absence of chemical substance: 2.1
DNA repair protein genes; yeast gene YPL164C
  The level of expressed mRNA in the presence of chemical substance/The level of expressed mRNA in the absence of chemical substance: 2.1
DNA repair protein genes; yeast gene YPL194W
  The level of expressed mRNA in the presence of chemical substance/The level of expressed mRNA in the absence of chemical substance: 9.6
DNA repair protein genes; yeast gene YPR025C
  The level of expressed mRNA in the presence of chemical substance/The level of expressed mRNA in the absence of chemical substance: 1.9
[1]; yeast gene YBL064C
  The level of expressed mRNA in the presence of chemical substance/The level of expressed mRNA in the absence of chemical substance: 4.5
[1]; yeast gene YBR008C
  The level of expressed mRNA in the presence of chemical substance/The level of expressed mRNA in the absence of chemical substance: 54.6
[1]; yeast gene YBR145W
  The level of expressed mRNA in the presence of chemical substance/The level of expressed mRNA in the absence of chemical substance: 0.1
